We go through 20 molecules from patent US12622917B2, “High-activity Wnt pathway inhibitor compound” (ADLAI NORTYE BIOPHARMA CO., LTD., priority 2020, dated 2026).

Usually IC50 stands for the concentration that inhibits the measured activity by half.

One test deals with Colo205. In words: Proliferation inhibition, Wnt mutant cell line Colo205. Format: cell-based. To be noted: Homo sapiens, COLO 205; Colo205, Wnt pathway-dependent, 96 hours; read-out: Antiproliferative IC50 Colo205. The essentials: (§1)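 1000 cells/well, 37° C/5% CO2, 20-24 h attach; 3-fold serial dilution, max final 20 uM; 96 h exposure. Promega viability readout, full wavelength mode. DMSO wells = positive ctrl, no-cell wells = negative ctrl; IC50 reported.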

The next test has as its system Hela. Description: Proliferation inhibition, non-Wnt mutant control cell line Hela. The test is classed as cell-based. As to conditions: Homo sapiens, Wnt-independent control cell line, 96 hours, read-out: Antiproliferative IC50 Hela. The source says:
The cell lines used in the experiment are Colo205 and DU4475 cell lines whose Wnt pathway is continuously activated and whose proliferation is Wnt pathway-dependent; while the BELA and RKO cell lines, whose Wnt pathway is not activated under normal circumstances and the proliferation is independent of Wnt pathway, as control cell lines. It is Judged that the inhibitory effect of the compound of the present invention on Wnt-dependent proliferation is not caused by other non-specific toxicity.
Treat the Colo205, Du4475, HELA and RKO cell lines cultured in their respective mediums in the logarithmic growth phase, collect the cells and prepare a uniform cell suspension of known concentration, and then add it to the 96-well cell culture plate Cell suspension, so that each well contains 1000 cells. Put it into a 5% CO2 incubator and incubate at 37° C. for 20-24 h. On the second day, the fully dissolved, 3-fold serially diluted compound was added to each cell culture well, so that the final maximum concentration in the cell culture well was 20 uM, and the culture was continued for 96 hours. In this test, Promega's cell viability detection test is used for detection. The more the cells proliferate, the stronger the final signal intensity will be. The detection instrument is SpectraMax, full wavelength mode. The wells only added with DMSO were used as positive control wells, and the wells that were not inoculated with cells were used as negative control wells. […] The IC50 value of cell proliferation inhibition was used to evaluate the inhibitory effect of the compound on the Wnt pathway and the toxic effect on normal cells (Table 2).

The next test relates to DU4475. Description: Proliferation inhibition, Wnt mutant cell line DU4475. The test is classed as cell-based. As to conditions: Homo sapiens, DU-4475; DU4475, Wnt pathway-dependent, 96 hours; read-out: Antiproliferative IC50 DU4475. The method in brief:
as §1

In another test the test system is RKO. Description: Proliferation inhibition, non-Wnt mutant control cell line RKO. The test is classed as cell-based. To be noted: Homo sapiens, Wnt-independent control cell line, 96 hours, read-out: Antiproliferative IC50 RKO. The essentials:
as §1

The test system of test [1] is Colo205-LUC-TCF/LEF M1 reporter cell line (Wnt pathway). In words: Colo205-LUC-TCF/LEF M1 reporter gene (luciferase) inhibition. The test is classed as cell-based. To be noted: 4 hours incubation, luciferase readout. The method in brief: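 Luminescent readout of TCF/LEF-regulated luciferase after a 4 h, 37° C compound exposure in a stable Colo205 reporter clone (10,000 cells/well). Serial 3-fold dilutions started at 20 uM; IC50 derived using DMSO-treated cells and no-cell wells as controls.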
(Reporter assays use an easily measured gene product as a stand-in for the process of interest.)

The next test has as its system HepG2. In words: Proliferation inhibition, HepG2 cell line. The test is classed as cell-based. As to conditions: Homo sapiens; HepG2 cells, 96 hours culture, cell viability detection; read-out: Antiproliferative IC50 HepG2. The source says:
(§2) The cell lines used in the test are NCI-H929 and HepG2 cell lines whose Wnt pathway is continuously activated and whose proliferation is Wnt pathway-dependent; the inhibitory effect of the compound of the present invention on Wnt-dependent proliferation is judged.
(§3) Treat the NCI-H929 and HepG2 cell lines cultured in their respective mediums in the logarithmic growth phase, collect the cells and prepare a uniform cell suspension of known concentration, and then add the cell suspension to the 96-well cell culture plate solution so that each well contains 4000 cells. Put it into a […] incubator and incubate at 37° C. for 20-24 h. On the second day, the fully dissolved, 3-fold serially diluted compound was added to each cell culture well, so that the final maximum concentration in the cell culture well was 20 uM, and the culture was continued for 96 hours. In this test, Promega's cell viability detection test is used for detection. The more the cells proliferate, the stronger the final signal intensity will be. The detection instrument is SpectraMax, full wavelength mode. The wells only added with DMSO were used as positive control wells, and the wells that were not inoculated with cells were used as negative control wells. […] The IC50 value of cell proliferation inhibition was used to evaluate the inhibitory effect of the compound on the Wnt pathway and the toxic effect on normal cells (Table 3).

Another test has as its system NCI-H929. In words: Proliferation inhibition, NCI-H929 cell line. The test is classed as cell-based, human. To be noted: Homo sapiens; NCI-H929 cells, 96 hours culture, cell viability detection; read-out: Antiproliferative IC50 NCI-H929.
Source text: as §2, §3

For the molecule `C[C@H]1C(=O)N2CCCc3nc(NCc4ccc(Cn5ccc(C(F)(F)F)n5)nc4)nc(c32)N1C` [92 (W232)], the half-inhibitory concentration (IC50) in the test with Colo205 is 81 nM; in the test with Hela, over 10000 nM; with DU4475, 80 nM; with RKO, over 10000 nM.
As for `COC[C@H]1Cn2ccc3nc(NCc4ccc(C(F)(F)F)nc4)nc(c32)N1C` [86 (W135)], the IC50 was 79 nM with Colo205, 38 nM in test [1], over 10000 nM in the test on Hela and over 10000 nM with RKO.
As to `CN1c2nc(NCc3ccc(Oc4ccc(C(F)(F)F)nc4)nc3)nc3c2N(CCC3)C(=O)[C@@H]1CC(F)(F)F` [190 (W317)], the IC50 with Colo205 was 7.9 nM; in test [1] it was 11 nM; with DU4475, under 0.5 nM; with RKO, over 10000 nM; with HepG2, 2.1 nM; in the test with NCI-H929 it was 6.4 nM.
On to `[2H]C([2H])([2H])N1c2nc(NCc3ccc(Oc4cnc(C(F)(F)F)nc4)nc3)nc3c2N(CCC3)C(=O)[C@@H]1C1CC1` [165 (W286)], for which the half-maximal inhibitory concentration (IC50) was 12 nM with Colo205; 14 nM in test [1]; 0.6 nM in the test with DU4475; over 10000 nM in the test on RKO; 11 nM in the test with HepG2; 31 nM in the test with NCI-H929.
With `CC[C@H]1C(=O)N2CCCc3nc(NCc4ccc(Cn5ccc(C(F)(F)F)n5)nc4)nc(c32)N1C` [146 (W273)], the IC50 in the test on Colo205 is 31 nM; in test [1], 34 nM; with DU4475, 18 nM; with RKO, over 10000 nM; with HepG2, 81 nM; in the test on NCI-H929, 87 nM.
Take `CN1c2nc(NCc3ccc(Oc4cnc(C(F)(F)F)nc4)nc3)nc3c2N(CCC3)C(=O)[C@@H]1CF` [150 (W301)]: the IC50 was 24 nM with Colo205; 25 nM in test [1]; 12 nM with DU4475; over 10000 nM in the test on RKO; 19 nM with HepG2; 62 nM in the test with NCI-H929.
Regarding `[2H]C([2H])([2H])N1c2nc(NCc3ccc(Oc4cnc(C(F)(F)F)nc4)nc3)nc3c2N(CCC3)C(=O)[C@@H]1CC(F)(F)F` [193 (W342)], the IC50 in the test with Colo205 was 1.4 nM; in test [1], 4 nM; in the test with DU4475, under 0.5 nM; with RKO, over 10000 nM; in the test on HepG2 it was 1.2 nM; in the test on NCI-H929, 24 nM.
In the case of `CCN1c2nc(NCc3ccc(Oc4cnc(C(F)(F)F)nc4)nc3)nc3c2N(CCC3)C(=O)[C@@H]1C1CC1` [166 (W287)], the IC50 in the test on Colo205 was 16 nM; in test [1], 23 nM; with DU4475 it was 4.8 nM; in the test on RKO, 4820 nM; with HepG2, 21 nM; in the test on NCI-H929, 31 nM.
Turning to `CN1c2nc(NCc3ccc(Oc4ccc(C(F)(F)F)nc4)nc3)nc3c2N(CCC3)C(=O)[C@@H]1c1ccccc1` [127 (W280), (S)-4-methyl-5-phenyl-2-(((6-((6-(trifluoromethyl)pyridin-3-yl)oxo)pyridin-3-yl)methyl)amino)-4,5,9,10-tetrahydro-6H,8H-pyrido[3,2,1-de]pteridin-6-one], the IC50 in the test on Colo205 is 21 nM; in test [1] it was 20 nM; with DU4475, 42 nM; with RKO it was over 10000 nM; with HepG2, 42 nM; in the test on NCI-H929, 75 nM.
Consider `C[C@@H](F)[C@H]1C(=O)N2CCCc3nc(NCc4ccc(Oc5ccc(C(F)(F)F)nc5)nc4)nc(c32)N1C` [149 (W285)], for which the IC50 in the test with Colo205 was 15 nM; in test [1], 16 nM; in the test on DU4475, 2.9 nM; in the test with RKO it was over 10000 nM; in the test with HepG2, 11 nM; in the test on NCI-H929, 41 nM.
For `CN1c2nc(NCc3ccc(Oc4cnc(C(F)(F)F)nc4)nc3)nc3c2N(CCC3)C(=O)[C@@H]1C1CC1` [167 (W289)], the IC50 was 6 nM in the test with Colo205; 12 nM in test [1]; 0.6 nM in the test with DU4475; over 10000 nM in the test with RKO; 6.8 nM with HepG2; 28 nM with NCI-H929.
`CN1c2nc(NCc3ccc(Oc4cnc(C(F)(F)F)nc4)nc3)nc3c2N(CCC3)C(=O)[C@@H]1c1ccccc1` [172 (W305)]: the IC50 in the test with Colo205 is 17.4 nM; in test [1] it was 20 nM; with DU4475, 5.8 nM; in the test with RKO, over 10000 nM; with HepG2, 26 nM; in the test with NCI-H929, 89 nM.
Regarding `[2H]C([2H])([2H])N1c2nc(NCc3ccc(Oc4cnc(C(F)(F)F)nc4)nc3)nc3c2N(CCC3)C(=O)[C@@H]1CC(F)F` [164 (W326)], the IC50 is 5 nM in the test with Colo205; 26 nM in test [1]; 5 nM in the test on DU4475; over 10000 nM with RKO; 7.5 nM in the test with HepG2; 26 nM in the test with NCI-H929.
As to `[2H]C([2H])([2H])N1c2nc(NCc3ccc(Oc4cnc(C(F)(F)F)nc4)nc3)nc3c2N(CCC3)C(=O)[C@@H]1CC` [162 (W270)], the IC50 was 4.9 nM in the test on Colo205; 11 nM in test [1]; under 0.5 nM in the test on DU4475; over 10000 nM with RKO; 16 nM with HepG2; 22 nM in the test on NCI-H929.
Regarding `COC[C@H]1[C@@H](C)n2ccc3nc(NCc4cnn(Cc5ccc(C(F)(F)F)nc5)c4)nc(c32)N1C` [88 (W140)], the results for the IC50 (in test [1]; in the test on Hela; in the test with RKO) were 22 nM, over 10000 nM and over 10000 nM, respectively.
Turning to `CN1c2nc(NCc3ccc(Oc4ccc(C(F)(F)F)nc4)nc3)nc3c2N(CCC3)C(=O)C1(C)C` [176 (W296)], the half-inhibitory concentration (IC50) was 5.6 nM in the test on Colo205; 20 nM in test [1]; 3.8 nM in the test on DU4475; over 10000 nM with RKO; 27 nM in the test on HepG2; 40 nM in the test on NCI-H929.
Consider `CN1c2nc(NCc3ccc(Oc4ccc(C(F)(F)F)nc4)nc3)nc3c2N(CCC3)C(=O)[C@@H]1C1CC1` [120 (W265)], for which the IC50 is 7.8 nM in the test on Colo205; 15 nM in test [1]; 0.5 nM in the test on DU4475; over 10000 nM with RKO; 18 nM in the test with HepG2; 55 nM with NCI-H929.
Take `CC[C@H]1C(=O)N2CCCc3nc(NCc4ccc(Oc5cnc(C(F)(F)F)nc5)nc4)nc(c32)N1C` [161 (W269)]: the IC50 in the test on Colo205 was 4.6 nM; in test [1], 9 nM; with DU4475, under 0.5 nM; in the test with RKO it was over 10000 nM; in the test with HepG2 it was 16 nM; in the test with NCI-H929, 22 nM.
With `CN1c2nc(NCc3ccc(Oc4cnc(C(F)(F)F)nc4)nc3)nc3c2N(CCC3)C(=O)C1(C)C` [177 (W297)], the IC50 in the test with Colo205 was 16.1 nM; in test [1] it was 21 nM; in the test with DU4475, 1.2 nM; with RKO, over 10000 nM; in the test on HepG2 it was 25 nM; in the test with NCI-H929, 56 nM.
As to `C[C@H]1C(=O)N2CCCc3nc(NCc4ccc(Oc5cc(C(F)(F)F)nn5C)nc4)nc(c32)N1C` [128 (W263), (S)-4,5-dimethyl-2-(((6-((1-methyl-3-(trifluoromethyl)-1H-pyrazol-5-yl)oxo)pyridine-3-yl)methyl)amino)-4,5,9,10-tetrahydro-6H,8H-pyrido[3,2,1-de]pteridin-6-one], the IC50 in the test with Colo205 is 18.6 nM; in test [1], 19 nM; in the test on DU4475, 4.1 nM; in the test with RKO it was over 10000 nM; in the test on HepG2 it was 27 nM; with NCI-H929 it was 78 nM.
